Reference: article PMC7721589, “Synthesis and structure-activity relationships for tetrahydroisoquinoline-based inhibitors of Mycobacterium tuberculosis” (Bioorganic & Medicinal Chemistry, 2020)
Converted amounts (≈) assume the structure as drawn. Where two headings read alike, the source gives them in different places.

How the values were obtained:
[1] = test system: M.tb strain H37Rv; experiment: MIC against M.tb H37Rv under non-replicating (LORA) conditions; details: for MIC LORA: MIC90, Table 1
[2] = molecular target: M. smegmatis ATP synthase (Mycolicibacterium smegmatis, UniProt A0R205+A0R206); experiment: Inhibition of mycobacterial ATP synthase; format: biochemical; details: for IC50: read-out: M. smeg ATPsynth IC50, M. smegmatis ATP synthase; for selectivity over the human enzyme: M. smegmatis vs human mitochondrial ATP synthase
[3] = test system: Vero green monkey-derived epithelial kidney cells; experiment: Mammalian cytotoxicity in Vero cells; format: cell-based; details: Chlorocebus sabaeus
[4] = test system: M.tb strain H37Rv; experiment: MIC against M.tb H37Rv under aerobic (replicating; MABA) conditions; format: cell-based, Mycobacterium tuberculosis; details: Mycobacterium tuberculosis
[5] = human, microsomes
[6] = mouse, microsomes
[7] = MIC90, Table 1, read-out: MIC MABA
Wherever HLM Clint is given: unit not given here.
Wherever MLM Clint is given: unit not given here.

Row | Structure (SMILES) | MIC LORA [1] | IC50 [2] | IC50 ([3]; Table 1) | MIC [4, 7] | selectivity over the human enzyme [2] | HLM Clint [5] | MLM Clint [6] | melting point | MIC (µg/mL) LORA ([1]; MIC90, Table 2) | IC50 ([3]; Table 2) | MIC ([4]; MIC90, Table 2, read-out: MIC (µg/mL) MABA)
1 | Cc1ccc(N2CCN(C)CC2)c2c1CCN(C(=O)N1CCC(Oc3ccccc3C(F)(F)F)CC1)C2 [Compound 49, (5-Methyl-8-(4-methylpiperazin-1-yl)-3,4-dihydroisoquinolin-2(1H)-yl)(4-(2-(trifluoromethyl)phenoxy)piperidin-1-yl)methanone] | 7.3 µg/mL (≈ 14.1 µM) | 12 µM | 11 µg/mL (≈ 21.3 µM) | 7.7 µg/mL (≈ 14.9 µM) | – | – | – | – | – | – | –
2 | CN1CCN(c2cccc3c2CN(C(=O)Nc2ccc(-c4ccc(OC(F)(F)F)cc4)cn2)CC3)CC1 [Compound 23, 8-(4-Methylpiperazin-1-yl)-N-(5-(4-(trifluoromethoxy)phenyl)pyridin-2-yl)-3,4-dihydroisoquinoline-2(1H)-carboxamide] | 3.9 µg/mL (≈ 7.62 µM) | 12.1 µM | 14 µg/mL (≈ 27.4 µM) | 3.6 µg/mL (≈ 7.04 µM) | > 80 fold | – | – | – | – | – | –
3 | Cc1ccc(N2CCN(C)CC2)c2c1CCN(C(=O)N1CCC(Oc3ccc(OC(F)(F)F)cc3)CC1)C2 [Compound 48, (5-Methyl-8-(4-methylpiperazin-1-yl)-3,4-dihydroisoquinolin-2(1H)-yl)(4-(4-(trifluoromethoxy)phenoxy)piperidin-1-yl)methanone] | 3.9 µg/mL (≈ 7.32 µM) | – | 19 µg/mL (≈ 35.7 µM) | 6.4 µg/mL (≈ 12 µM) | – | 48 | 40 | – | – | – | –
4 | COc1ccc(-c2ccc(NC(=O)N3CCc4c(OC)ccc(N5CCN(C)CC5)c4C3)nc2)cc1 [Compound 33, 5-Methoxy-N-(5-(4-methoxyphenyl)pyridin-2-yl)-8-(4-methylpiperazin-1-yl)-3,4-dihydroisoquinoline-2(1H)-carboxamide] | 7.4 µg/mL (≈ 15.2 µM) | – | 16 µg/mL (≈ 32.8 µM) | 7.1 µg/mL (≈ 14.6 µM) | – | – | – | 207 to 209 °C | – | – | –
5 | Cc1cc(Cl)ccc1-c1ccc(CC(=O)N2CCc3cccc(N4CCN(C)CC4)c3C2)nc1 [Compound 47] | 19.4 µg/mL (≈ 40.8 µM) | – | 11 µg/mL (≈ 23.2 µM) | 14 µg/mL (≈ 29.5 µM) | – | – | – | 45 to 48 °C | – | – | –
6 | COc1ccc(N2CCN(C)CC2)c2c1CCN(C(=O)Nc1ccc(-c3ccc(Cl)cc3C)cn1)C2 [Compound 35, N-(5-(4-chloro-2-methylphenyl)pyridin-2-yl)-5-methoxy-8-(4-methylpiperazin-1-yl)-3,4-dihydroisoquinoline-2(1H)-carboxamide] | 3.1 µg/mL (≈ 6.13 µM) | 12.4 µM | 12 µg/mL (≈ 23.7 µM) | 1.9 µg/mL (≈ 3.75 µM) | – | – | – | 99 to 101 °C | – | – | –
7 | CN1CCN(c2cccc3c2CN(Cc2ccc(-c4ccc(Cl)cc4)cn2)CC3)CC1 [Compound 10, 2-((5-(4-Chlorophenyl)pyridin-2-yl)methyl)-8-(4-methylpiperazin-1-yl)-1,2,3,4-tetrahydroisoquinoline] | 16 µg/mL (≈ 37 µM) | 16.6 µM | 16 µg/mL (≈ 37 µM) | 1.8 µg/mL (≈ 4.16 µM) | > 70 fold | 121 | 238 | – | – | – | –
8 | CN1CCN(c2ccc(F)c3c2CN(Cc2ccc(-c4ccc(Cl)cc4C(F)(F)F)cn2)CC3)CC1 [Compound 17, 2-((5-(4-Chloro-2-(trifluoromethyl)phenyl)pyridin-2-yl)methyl)-5-fluoro-8-(4-methylpiperazin-1-yl)-1,2,3,4-tetrahydroisoquinoline] | 5.4 µg/mL (≈ 10.4 µM) | – | 11 µg/mL (≈ 21.2 µM) | 2.3 µg/mL (≈ 4.43 µM) | – | – | – | 102 to 104 °C | – | – | –
9 | Cc1cc(Cl)ccc1-c1ccc(C(=O)N2CCc3cccc(N4CCN(C)CC4)c3C2)nc1 [Compound 18, (5-(4-Chloro-2-methylphenyl)pyridin-2-yl)(8-(4-methylpiperazin-1-yl)-3,4-dihydroisoquinolin-2(1H)-yl)methanone] | 13 µg/mL (≈ 28.2 µM) | – | 20 µg/mL (≈ 43.4 µM) | 11 µg/mL (≈ 23.9 µM) | – | – | – | 132 to 135 °C | – | – | –
10 | COc1ccc(N2CCN(C)CC2)c2c1CCN(C(=O)c1ccc(-c3ccc(Cl)cc3C)cn1)C2 [Compound 22, (5-(4-Chloro-2-methylphenyl)pyridin-2-yl)(5-methoxy-8-(4-methylpiperazin-1-yl)-3,4-dihydroisoquinolin-2(1H)-yl)methanone] | 8.0 µg/mL (≈ 16.3 µM) | – | 22 µg/mL (≈ 44.8 µM) | 8.9 µg/mL (≈ 18.1 µM) | – | – | – | 125 to 128 °C | – | – | –
11 | Cc1ccc(-c2ccc(NC(=O)N3CCc4c(Cc5ccccc5)ccc(N5CCN(C)CC5)c4C3)nc2)c(C)c1 [Compound 30, 5-Benzyl-N-(5-(2,4-dimethylphenyl)pyridin-2-yl)-8-(4-methylpiperazin-1-yl)-3,4-dihydroisoquinoline-2(1H)-carboxamide] | 1.9 µg/mL (≈ 3.48 µM) | – | 11 µg/mL (≈ 20.2 µM) | 2 µg/mL (≈ 3.66 µM) | – | – | – | 94 to 97 °C | – | – | –
12 | Cc1ccc(N2CCN(C)CC2)c2c1CCN(C(=O)Nc1ccc(-c3cc(C(F)(F)F)cc(C(F)(F)F)c3)cn1)C2 [Compound 26, N-(5-(3,5-Bis(trifluoromethyl)phenyl)pyridin-2-yl)-5-methyl-8-(4-methylpiperazin-1-yl)-3,4-dihydroisoquinoline-2(1H)-carboxamide] | 5.3 µg/mL (≈ 9.18 µM) | 24.2 µM | > 32 µg/mL | 3.1 µg/mL (≈ 5.37 µM) | – | – | – | 114 to 117 °C | – | – | –
13 | COc1ccc(N2CCN(C)CC2)c2c1CCN(C(=O)N1CCC(Oc3ccccc3C(F)(F)F)CC1)C2 [Compound 51, (5-Methoxy-8-(4-methylpiperazin-1-yl)-3,4-dihydroisoquinolin-2(1H)-yl)(4-(2-(trifluoromethyl)phenoxy)piperidin-1-yl)methanone] | 10.0 µg/mL (≈ 18.8 µM) | – | 24 µg/mL (≈ 45.1 µM) | 12 µg/mL (≈ 22.5 µM) | – | – | – | 74 to 77 °C | – | – | –
14 | CCc1ccc(N2CCN(C)CC2)c2c1CCN(C(=O)Nc1ccc(-c3ccc(C(F)(F)F)cc3)cn1)C2 [Compound 27, 5-Ethyl-8-(4-methylpiperazin-1-yl)-N-(5-(4-(trifluoromethyl)phenyl)pyridin-2-yl)-3,4-dihydroisoquinoline-2(1H)-carboxamide] | 0.9 µg/mL (≈ 1.72 µM) | 4.2 µM | 12 µg/mL (≈ 22.9 µM) | 1 µg/mL (≈ 1.91 µM) | – | 107 | 810 | – | – | – | –
15 | COc1ccc(N2CCN(C)CC2)c2c1CCN(C(=O)Nc1ccc(-c3ccc(C(F)(F)F)cc3Cl)cn1)C2 [Compound 34, N-(5-(2-Chloro-4-(trifluoromethyl)phenyl)pyridin-2-yl)-5-methoxy-8-(4-methylpiperazin-1-yl)-3,4-dihydroisoquinoline-2(1H)-carboxamide] | 3.2 µg/mL (≈ 5.71 µM) | – | 12 µg/mL (≈ 21.4 µM) | 3.6 µg/mL (≈ 6.43 µM) | – | – | – | 61 to 64 °C | – | – | –
16 | CN1CCN(c2cccc3c2CN(C(=O)Cc2ccc(-c4ccc(Cl)cc4)cn2)CC3)CC1 [Compound 43, 2-(5-(4-Chlorophenyl)pyridin-2-yl)-1-(8-(4-methylpiperazin-1-yl)-3,4-dihydroisoquinolin-2(1H)-yl)ethan-1-one] | 20.3 µg/mL (≈ 44 µM) | – | 19 µg/mL (≈ 41.2 µM) | 14.1 µg/mL (≈ 30.6 µM) | – | – | – | 49 to 52 °C | – | – | –
17 | Cc1cc(Cl)ccc1-c1ccc(CN2CCc3c(C)ccc(N4CCSCC4)c3C2)nc1 [Compound 54, 4-(2-((5-(4-Chloro-2-methylphenyl)pyridin-2-yl)methyl)-5-methyl-1,2,3,4-tetrahydroisoquinolin-8-yl)yhiomorpholine] | – | – | – | – | – | – | – | 133 to 135 °C | 5.9 µg/mL (≈ 12.7 µM) | > 32 µg/mL | 3.4 µg/mL (≈ 7.33 µM)
18 | CSc1ccc(N2CCN(C)CC2)c2c1CCN(C(=O)Nc1ccc(-c3ccc(Cl)cc3C)cn1)C2 [Compound 40, N-(5-(4-Chloro-2-methylphenyl)pyridin-2-yl)-8-(4-methylpiperazin-1-yl)-5-(methylthio)-3,4-dihydroisoquinoline-2(1H)-carboxamide] | 2.0 µg/mL (≈ 3.83 µM) | – | 13 µg/mL (≈ 24.9 µM) | 1.9 µg/mL (≈ 3.64 µM) | – | – | – | 111 to 114 °C | – | – | –
19 | CN1CCN(c2cccc3c2CN(C(=O)c2ccc(-c4cccc(Cl)c4)cn2)CC3)CC1 [Compound 20, (5-(3-Chlorophenyl)pyridin-2-yl)(8-(4-methylpiperazin-1-yl)-3,4-dihydroisoquinolin-2(1H)-yl)methanone] | 11.3 µg/mL (≈ 25.3 µM) | – | 24 µg/mL (≈ 53.7 µM) | 15 µg/mL (≈ 33.6 µM) | – | – | – | 105 to 108 °C | – | – | –
20 | CSc1ccc(N2CCN(C)CC2)c2c1CCN(Cc1ccc(-c3ccc(Cl)cc3C)cn1)C2 [Compound 14, 2-((5-(4-Chloro-2-methylphenyl)pyridin-2-yl)methyl)-8-(4-methylpiperazin-1-yl)-5-(methylthio)-1,2,3,4-tetrahydroisoquinoline] | 6.0 µg/mL (≈ 12.2 µM) | – | 11 µg/mL (≈ 22.3 µM) | 3.4 µg/mL (≈ 6.89 µM) | – | – | – | 65 to 68 °C | – | – | –
